Measured values: patent US20080146602A1, “Thienopyridine Derivatives, Production Method and Use Thereof” (TAKEDA PHARMACEUTICAL COMPANY LIMITED, priority 2004, published 2008)
Marks after values point to notes of the source that are not given here.

Experiments:
[1] = tested on: Adjuvant Arthritis in Rat; assay: Effect on adjuvant arthritis in rat (footpad swelling suppression); type: in vivo; settings: male Lewis rat, Freund's complete adjuvant; 0.3 mg/kg orally once a day for 14 days; edema volume of left hind paw, Day 14; n=6
Protocol: Effect on Adjuvant Arthritis in Rat
A male Lewis rat (7-week-old, Crea Japan Ltd.) was sensitized by an intracutaneous injection of 0.05 ml of Freund's complete adjuvant: 0.5% liquid paraffin suspension of dead tubercle bacillus) into the footpad of the right hind paw, and the test compound suspended in 0.5% methyl cellulose was orally administered once a day for 14 days. Immediately before sensitization (Day 0) and 14th day (Day 14), the edema volume of the left hind paw was measured by a plethysmometer (manufactured by Ugo Basile, Italy) and the footpad swelling suppression rate (%) relative to unsensitized rat was determined by the following formula.
The results are shown in mean ±S.E. of each group (n=6) and compared and detected by the Dunnett's method. In addition, less than 5% of the critical rate was taken as significant.

SMILES | Swelling suppression rate (%) [1] | melting point
COc1ccc(-c2c(Cl)c(CN3C(=O)CCC3=O)nc3sc4c(c23)CC[C@@H](C(N)=O)C4)cc1 (stereo in doubt) [Example 5-2, 3-chloro-2-[(2,5-dioxo-1-pyrrolidinyl)methyl]-5,6,7,8-tetrahydro-4-(4-methoxyphenyl)[1]benzothieno[2,3-b]pyridine-7-carboxamide] | 88* % | 
COc1ccc(-c2c(Cl)c(CN3C(=O)CSC3=O)nc3sc4c(c23)CC[C@@H](C(N)=O)C4)cc1 (stereo in doubt) [Example 6-2, 3-chloro-2-[(2,4-dioxo-1,3-thiazolidin-3-yl)methyl]-5,6,7,8-tetrahydro-4-(4-methoxyphenyl)[1]benzothieno[2,3-b]pyridine-7-carboxamide] | 87* % | 
COc1ccc(-c2c(Cl)c(CN3C(=O)COC3=O)nc3sc4c(c23)CC[C@H](C(N)=O)C4)cc1 [Example 4-2, (7S)-3-chloro-2-[(2,4-dioxo-1,3-oxazolidin-3-yl)methyl]-5,6,7,8-tetrahydro-4-(4-methoxyphenyl)[1]benzothieno[2,3-b]pyridine-7-carboxamide] | 82* % | 
NC(=O)[C@H]1CCc2c(sc3nc(CN4C(=O)CCC4=O)c(Cl)c(-c4ccc(O)cc4)c23)C1 [Example 8, (7S)-3-Chloro-2-[(2,5-dioxo-1-pyrrolidinyl)methyl]-5,6,7,8-tetrahydro-4-(4-hydroxyphenyl)[1]benzothieno[2,3-b]pyridine-7-carboxamide] |  | 299 to 300 °C
NC(=O)[C@H]1CCc2c(sc3nc(CN4C(=O)CSC4=O)c(Cl)c(-c4ccc(O)cc4)c23)C1 [Example 9, (7S)-3-Chloro-2-[(2,4-dioxo-1,3-thiazolidin-3-yl)methyl]-5,6,7,8-tetrahydro-4-(4-hydroxyphenyl)[1]benzothieno[2,3-b]pyridine-7-carboxamide] |  | 282 to 283 °C
